Assay: Half-life data for 2-chloro-2-alkyl substituted peroxyesters (0.2M in Benzene)
Type: physicochemical
Conditions: for Half-Life: 200000 µM
Excerpt: The following Table III illustrates the desirable half lifes obtainable with compositions of this invention:
HALF-LIFE DATA FOR SELECTED 2-CHLORO-2-ALKYL
SUBSTITUTED PEROXYESTERS (0.2M in Benzene)

## CCCCC(Cl)(CC)C(=O)OOC(C)(C)C (stereo not drawn) [TBPCEH, t-Butyl peroxy 2-chloro-2-ethyl hexanoate]
  10 Hr Half-Life Temp: 56.2 °C
55 °C.
  Half-Life: 11.55 h
65 °C.
  Half-Life: 3.72 h
75 °C.
  Half-Life: 1.16 h
80 °C.
  Half-Life: 0.68 h

## CCC(Cl)(CC)C(=O)OOC(C)(C)CC(C)(C)C [TMBPCEB, 1,1,3,3 Tetramethylbutylperoxy-2-chloro-2-ethylbutyrate]
47.5 °C.
  Half-Life: 23.22 h
50 °C.
  Half-Life: 16.84 h
55 °C.
  Half-Life: 9.00 h
65 °C.
  Half-Life: 2.38 h

From US4278612A, “2-Chloro-2-alkyl substituted peroxyesters” (priority 1979, dated 1981)
